Paper PMC5481817, “Developing Targeted Hybrid Imaging Probes by Chelator Scaffolding” (Bioconjugate chemistry, 2017)
One block for each compound: values may come before it.

Tests used:
human CCK-2 receptor = biological target: T1, human CCK-2 receptor (Homo sapiens, UniProt P32239); set-up: method as in unpublished data; conditions: comparison value, slight variances in experimental setting; ref unpublished data; cited from earlier work
T1 construct: expressed in transfected cells; host or cells: A431 human squamous carcinoma cells (gift from L. Aloj)
T1 sequence (P32239 1-447): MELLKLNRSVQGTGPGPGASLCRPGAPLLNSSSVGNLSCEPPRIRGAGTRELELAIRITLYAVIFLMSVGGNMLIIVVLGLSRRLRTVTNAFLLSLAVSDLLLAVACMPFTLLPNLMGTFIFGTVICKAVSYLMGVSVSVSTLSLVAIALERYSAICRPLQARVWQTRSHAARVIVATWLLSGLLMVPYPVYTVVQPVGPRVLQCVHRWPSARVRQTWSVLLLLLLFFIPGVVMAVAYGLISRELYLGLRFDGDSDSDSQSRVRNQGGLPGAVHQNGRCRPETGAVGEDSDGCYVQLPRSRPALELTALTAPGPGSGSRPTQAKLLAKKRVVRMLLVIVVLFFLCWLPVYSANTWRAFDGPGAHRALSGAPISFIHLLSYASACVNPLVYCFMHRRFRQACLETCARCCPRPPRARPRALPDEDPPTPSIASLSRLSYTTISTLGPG

integrin αvβ3 = biological target: T2, integrin αvβ3 (Homo sapiens, UniProt P05106+P06756); assay: Integrin binding affinity assay (displacement of [125I]-c(RGDyV)) on M21 cells; conditions: metal-free conjugate or reference peptide, radioligand [125I]-c(RGDyV), 2 h RT
T2 construct: endogenous in cells; host or cells: human melanoma M21 cells (gift from D. A. Cheresh)
Protocol: Receptor binding affinities were evaluated via a displacement cell-binding assay for metal free as well as metal bound ([^natGa]) conjugates. Binding of nonradioactive gallium was performed in analogy to the radiolabeling procedure but instead of the generator eluate a 100-fold molar excess of gallium bromide (GaBr3) dissolved in 100 μL 0.1 N HCl was used. Cells were prepared as described below and incubated with increasing concentrations [0.001–1000 nM] of competitor in triplicate. After addition of corresponding iodinated radioligand the 96-well MulitScreen Filter Plates HTS (1 μm glass fiber filter, Merck Millipore, Darmstadt, Germany) were incubated for 1 or 2 h at RT under shaking conditions (Compact shaker KS-15 control, 200/min) and after a washing step the remaining activity on the filter was measured in the γ-counter. The receptor affinity of DOTA-minigastrin11 as well as c(RGDyV) were determined under the corresponding conditions as a reference. IC50 values were calculated by using nonlinear curve fitting with following formula NS+SB/(1+x/IC50) on Origin 6.1 software (Northampton, MA, USA). A detailed description regarding iodination can be found in the Supporting Information.
Integrin binding affinity assay was adapted from Yun Wu et al.[31] Briefly, M21 cells were washed two times with phosphate buffered saline followed by suspension in binding buffer (=20 mM TRIS pH 7.4 + 150 mM NaCl + 2 mM CaCl2 + 1 mM MgCl2 + 1 mM MnCl2 0.1% BSA). 96-well plates were washed with 200 μL of 20 mM TRIS-buffer and seeded with 1 × 10^6 cells/well (10^7 cells/mL). After 10 min of incubation in the presence of the competitor {([^natGa])Sulfo-Cy7-FSC-RGD or c(RGDyV) diluted in binding buffer)} volume was adjusted to 200 μL/well by adding 50 μL of radioligand ([^125I]-c(RGDyV), 4.5 × 10^4 cpm) and the plate was left for 2 h at RT. Finally the supernatant was removed by vacuum and each well was washed three times with 200 μL ice-cold binding buffer.

[1] = test system: M21 (αvβ3-positive) cells; assay: Fluorescence measured cell specificity, M21; format: cell-based, human; conditions: 2 h incubation, 3 nM ligand
Protocol: (§1) Fluorescence assays were conducted similarly to the internalization assays except for using lower cell numbers and determining only the cellbound fraction. Briefly, A431-CCK2R, M21, and M21-L cells were diluted in corresponding media to a density of 2 × 10^6 cells/mL. Aliquots of 0.5 mL were transferred to Eppendorf tubes—six technical replicates for A431-CCK2R unblocked and blocked and M21/M21-L, respectively—and treated in the same manner as described above. The nonradiolabeled particular ligand was added to a final concentration of 3 nM and the tubes were kept in an incubator (Incubator hood TH15 and Compact shaker KS-15 control, Edmund Bühler GmbH, Hechingen, Germany) at 37 °C for 2 h under vigorously shaking (420/min). After centrifugation (2 min, 5000 rpm) washing steps were performed as mentioned before. […] Fluorescence intensity was measured with Tecan Infinite 200 PRO series multiplate reader (Tecan Trading AG, Switzerland) by using Tecan Icontrol 1.1 software. Parameters were set as follows: Fluorescence Top reading; excitation/emission wavelength 740/790 nm; excitation bandwidth 9 nm; emission bandwidth 20 nm; gain optimal; number of flashes 25; integration time 25 μs. Results were calculated and expressed as percentage of cell-bound fluorescence in relation to the standards sample.

[2] = test system: M21-L (αvβ3-negative) cells; assay: Fluorescence measured cell specificity, M21-L; format: cell-based, human; conditions: 2 h incubation, 3 nM ligand
Protocol: as §1

[3] = test system: mice bearing U-87MG tumor xenografts; assay: Near-infrared fluorescence imaging, U-87MG xenografts; format: in vivo, mouse
Protocol: All animal experiments were conducted in accordance with regulations and guidelines of the Czech Animal Protection Act (No. 246/1992), and with the approval of the Czech Ministry of Education, Youth, and Sports (MSMT-22421/2013–12), and the institutional Animal Welfare Committee of the Faculty of Medicine and Dentistry of Palacky University in Olomouc. The studies were performed using female 8–10-week-old athymic BALB/c nude mice (Envigo, Horst, The Netherlands). […]
Tumor xenografts were established near the front shoulder of mice by subcutaneous injection of 5 × 10^6 cells (U-87 MG) or 2 × 10^6 cells (A431-CCK2R) and the same amount of A431-mock cells as a control in 200 μL appropriate medium and Matrigel (1:1). […] Tumors, blood, muscle tissue, and organs were extracted, weighed, and activity uptake of the samples was measured in the gamma counter. Results were expressed as percentage of injected dose per gram tissue (% ID/g). […] After reconstruction, acquired data was viewed and analyzed with PMOD software (PMOD Technologies Ltd., Zurich, Switzerland). […] Near-infrared in vivo fluorescence imaging was performed with an In-Vivo MS FX PRO small animal imaging system (Bruker Biospin Corporation, Woodbridge, CT, USA). […] An appropriate filter set (excitation = 730 nm and emission = 790 nm) was used for acquiring the Sulfo-Cy7-FSC-peptide - fluorescence in vivo. […]

T2 sequence (P06756 31-889 limits assumed): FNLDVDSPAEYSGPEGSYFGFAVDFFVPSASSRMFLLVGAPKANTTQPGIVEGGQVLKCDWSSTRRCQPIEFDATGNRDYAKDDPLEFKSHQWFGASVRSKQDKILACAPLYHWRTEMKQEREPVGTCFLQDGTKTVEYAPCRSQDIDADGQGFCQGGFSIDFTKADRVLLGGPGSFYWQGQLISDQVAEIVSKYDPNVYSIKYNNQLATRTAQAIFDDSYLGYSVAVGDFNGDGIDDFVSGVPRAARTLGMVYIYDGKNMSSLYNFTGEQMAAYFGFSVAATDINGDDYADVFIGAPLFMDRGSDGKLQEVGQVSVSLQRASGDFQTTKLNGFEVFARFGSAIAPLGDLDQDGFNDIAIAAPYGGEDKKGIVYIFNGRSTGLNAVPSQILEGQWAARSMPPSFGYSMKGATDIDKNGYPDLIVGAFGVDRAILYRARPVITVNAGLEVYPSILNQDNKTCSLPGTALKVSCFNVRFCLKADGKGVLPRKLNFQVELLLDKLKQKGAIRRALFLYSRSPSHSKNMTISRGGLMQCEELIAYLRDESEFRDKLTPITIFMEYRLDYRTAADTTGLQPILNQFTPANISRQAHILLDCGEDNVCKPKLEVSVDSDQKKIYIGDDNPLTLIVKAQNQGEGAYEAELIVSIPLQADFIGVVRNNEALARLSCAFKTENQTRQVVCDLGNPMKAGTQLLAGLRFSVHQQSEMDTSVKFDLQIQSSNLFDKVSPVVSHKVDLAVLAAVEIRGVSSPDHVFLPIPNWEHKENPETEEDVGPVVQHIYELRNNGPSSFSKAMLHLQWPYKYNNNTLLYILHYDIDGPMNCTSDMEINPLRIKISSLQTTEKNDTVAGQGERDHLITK
T2 sequence (P06756 891-1048 partner limits assumed): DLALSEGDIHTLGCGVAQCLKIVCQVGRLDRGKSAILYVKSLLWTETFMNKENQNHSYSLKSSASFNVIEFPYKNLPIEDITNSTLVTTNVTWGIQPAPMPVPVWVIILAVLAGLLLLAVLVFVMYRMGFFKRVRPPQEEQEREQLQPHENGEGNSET
T2 sequence (P05106 27-788): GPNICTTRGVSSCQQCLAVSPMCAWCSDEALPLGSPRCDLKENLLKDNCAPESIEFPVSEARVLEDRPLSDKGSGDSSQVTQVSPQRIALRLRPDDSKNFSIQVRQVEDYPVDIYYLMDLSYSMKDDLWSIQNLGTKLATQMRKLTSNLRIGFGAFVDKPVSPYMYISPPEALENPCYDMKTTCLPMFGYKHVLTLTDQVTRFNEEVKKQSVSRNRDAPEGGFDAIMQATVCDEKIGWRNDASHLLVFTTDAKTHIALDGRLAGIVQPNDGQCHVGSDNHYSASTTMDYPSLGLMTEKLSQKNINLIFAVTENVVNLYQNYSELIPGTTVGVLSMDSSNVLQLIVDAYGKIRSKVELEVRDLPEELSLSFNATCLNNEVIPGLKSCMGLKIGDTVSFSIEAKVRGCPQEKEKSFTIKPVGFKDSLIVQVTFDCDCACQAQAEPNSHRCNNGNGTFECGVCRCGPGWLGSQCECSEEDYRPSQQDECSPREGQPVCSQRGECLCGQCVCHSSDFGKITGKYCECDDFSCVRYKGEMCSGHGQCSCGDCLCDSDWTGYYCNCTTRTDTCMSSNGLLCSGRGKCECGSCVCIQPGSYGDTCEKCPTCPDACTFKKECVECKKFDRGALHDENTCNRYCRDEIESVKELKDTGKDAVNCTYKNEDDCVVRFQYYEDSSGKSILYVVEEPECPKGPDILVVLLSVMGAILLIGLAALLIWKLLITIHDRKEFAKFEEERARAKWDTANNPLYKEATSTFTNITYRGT

Compound: nonfluorescent divalent FSC-MG derivative: nonfluorescent divalent FSC-MG derivative, authors' unpublished data used for comparison (EAYGWMDF; Synthetic minigastrin analogue MG11, converted from the printed [D-Glu1,desGlu2-6]-Ala-Tyr-Gly-Trp-Met-Asp-Phe-NH2; Glu1 is D-Glu; C-terminal amide; Two peptides on one Fusarinine C chelator, no fluor)
- IC50 (human CCK-2 receptor): 0.9 ± 0.2 nM

- IC50 (integrin αvβ3): 1.13 ± 0.22 nM
Compound: CC1=CC(=O)N(O)CCCC(NC(=O)CCN2C(=O)CC(SCCOCCOCCOCCOCCC(=O)NCCCC[C@@H]3NC(=O)[C@@H](Cc4ccccc4)NC(=O)[C@H](CC(=O)O)NC(=O)CNC(=O)[C@H](CCCNC(=N)N)NC3=O)C2=O)C(=O)OCCC(C)=CC(=O)N(O)CCCC(NC(=O)CCN2C(=O)CC(SCCOCCOCCOCCOCCC(=O)NCCCC[C@@H]3NC(=O)[C@@H](Cc4ccccc4)NC(=O)[C@H](CC(=O)O)NC(=O)CNC(=O)[C@H](CCCNC(=N)N)NC3=O)C2=O)C(=O)OCCC(C)=CC(=O)N(O)CCCC(NC(=O)CCCCC[N+]2=C(C=CC3=CC(=CC=C4N(C)c5ccc(S(=O)(=O)O)cc5C4(C)C)CCC3)C(C)(C)c3cc(S(=O)(=O)[O-])ccc32)C(=O)OCC1 (stereo partly drawn) [Sulfo-Cy7-FSC-RGD, Sulfo-Cyanine7-FSC-(mal-c(RGDfK)-(PEG4))2]
- Fluorescence-determined cell uptake [1]: 5.79 ± 0.88%
- Fluorescence-determined cell uptake [2]: 1.74 ± 0.25%
- time of best contrast in fluorescence imaging ([3]; after administration): 24 h
- tumor retention in fluorescence imaging ([3]; two days after injection): completely washed out from tumor tissue
